For one molecule, IC50 results are on record in patent publication US20260159521A1, “RET-LDD PROTEIN INHIBITORS” (Bristol-Myers Squibb Company, priority 2022, published 2026).

This assay has as its target RET kinase (Homo sapiens, UniProt P07949). Put plainly: time resolved FRET-based competition binding assay (RET HTRF). In general terms: TR-FRET usually uses a lanthanide donor and a delayed reading to cut background.

Sequence of RET kinase (P07949 29-1114): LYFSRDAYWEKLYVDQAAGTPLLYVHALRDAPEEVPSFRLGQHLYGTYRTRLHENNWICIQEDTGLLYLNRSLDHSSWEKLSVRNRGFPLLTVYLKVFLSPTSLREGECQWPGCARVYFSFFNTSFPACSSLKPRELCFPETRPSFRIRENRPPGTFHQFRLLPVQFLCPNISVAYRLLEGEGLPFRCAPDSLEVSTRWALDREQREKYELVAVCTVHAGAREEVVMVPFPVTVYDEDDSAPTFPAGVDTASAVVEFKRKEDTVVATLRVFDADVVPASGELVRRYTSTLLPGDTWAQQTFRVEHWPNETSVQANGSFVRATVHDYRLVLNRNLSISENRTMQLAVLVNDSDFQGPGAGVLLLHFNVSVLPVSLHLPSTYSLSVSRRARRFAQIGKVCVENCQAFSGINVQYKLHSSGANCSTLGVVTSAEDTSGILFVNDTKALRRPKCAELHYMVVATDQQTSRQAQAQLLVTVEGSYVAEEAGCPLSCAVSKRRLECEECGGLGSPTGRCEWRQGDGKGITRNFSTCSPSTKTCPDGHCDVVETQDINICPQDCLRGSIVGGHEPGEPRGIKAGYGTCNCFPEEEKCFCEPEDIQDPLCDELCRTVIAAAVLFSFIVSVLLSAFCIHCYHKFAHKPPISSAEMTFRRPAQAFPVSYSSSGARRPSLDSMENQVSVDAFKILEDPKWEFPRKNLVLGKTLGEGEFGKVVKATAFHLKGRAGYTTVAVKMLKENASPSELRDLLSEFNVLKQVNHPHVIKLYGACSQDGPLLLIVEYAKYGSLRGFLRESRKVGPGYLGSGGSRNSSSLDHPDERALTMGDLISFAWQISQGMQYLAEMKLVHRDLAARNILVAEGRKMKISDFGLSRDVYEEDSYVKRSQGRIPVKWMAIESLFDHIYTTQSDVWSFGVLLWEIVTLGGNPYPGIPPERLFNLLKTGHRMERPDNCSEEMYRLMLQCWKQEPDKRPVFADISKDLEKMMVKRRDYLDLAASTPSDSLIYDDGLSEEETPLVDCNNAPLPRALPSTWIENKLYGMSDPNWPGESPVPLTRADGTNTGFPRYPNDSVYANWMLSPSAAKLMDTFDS
Description: Cellular RET Binding Assay A time resolved FRET-based competition binding assay was used to assess compound binding to RET kinase (Thermo Fisher, PR7355A). […] Two (2) L of the reaction solution was dispensed into wells of a 1536 plate (Black Low Binding Polystyrene 1536 Plate, Corning, 3724) containing 10 nL of compounds of interest serially diluted in DMSO. The plate was incubated at room temperature for 1 h. FRET was measured using an EnVision plate reader (Excitation: 340 nm, Emission: 520 nm/495 nM). Total signal (0% inhibition) was calculated from wells containing 10 nL DMSO only.

As a reminder, the IC50 is the concentration that inhibits the measured activity by half. `COCc1ccc(NC(=O)c2c(-c3ccc(C=O)cc3)c(C(C)C)n3ncnc(N)c23)cc1` [Example 10, 4-amino-6-(4-formylphenyl)-7-isopropyl-N-(4-(methoxymethyl)phenyl)pyrrolo[2,1-f][1,2,4]triazine-5-carboxamide]: the IC50 is 37 nM.
